Measured values as given in patent US9643933B2, “Compounds useful as antibiotic tolerance inhibitors” (priority 2013, dated 2017).

Tests used:
PQS [1] = experiment: PQS Inhibition Assay (24 Hour Incubation); format: cell-based, P. aeruginosa PA14 wild-type strain; conditions: Pseudomonas aeruginosa, PA14, 24 h, read-out: PQS (24 hr) IC50 (μM)
Protocol: Test compounds are dissolved in DMSO at 10 mM and stored at −20° C. until needed. Seven test concentrations from 0.0032 micromolar to 31.6 micromolar are used for each compound. P. aeruginosa PA14 wild-type strain is inoculated into 5 mL LB broth in a 15-mL sterile glass culture tube and incubated overnight at 37° C. under shaking (˜240 rpm). The overnight culture is then diluted in LB Broth to give an OD600=0.04 (T0 culture). Colony Forming Units (CFU)/mL of the overnight culture and T0 culture are determined by a series of 1:10 serial dilutions in sterile saline. 4×20 μL of each dilution is seeded on LB agar plates and incubated at 35±2° C. for 20 hours. CFU/mL is determined from the dilution that gives 2 to 50 colonies/20 μL.
For concentration response curve (CRC) experiments, internal standard (2-((5-nitro-1H-indol-2-yl)thio)-N-(4-phenoxyphenyl)acetamide)) and test compounds are serially diluted in DMSO to give 200 times of each final concentration (0.5% DMSO final), and 1 μL/well is dispensed in duplicate into 2-mL wells of a 96 well deep well plate. 200 μL/well of T0 culture is added to each internal standard/test compound well used to determine PQS control level. Wells containing only LB broth (blank wells) are also included in the plate.
The plate is sealed and incubated at 37° C. for 24 hours under shaking (˜700 rpm) using a microtiter shaker. At the end of the incubation period, 150 μL/well of the deep well plate culture are transferred in a new non-sterile plate, and 150 μL/well of methanol containing tetra-deuterated PQS (D4-PQS) and 2% acetic acid are added to each well. The plate is sealed, shaken at high speed for 5 minutes and centrifuged at 4,000 g for 40 minutes at room temperature. 100 μL/well of the supernatant is then transferred to glass vials (vials crimp 0.2 mL) and kept at 4° C. until LC-MS/MS analysis.
PQSs quantification is carried out by analyzing samples in discrete batches together with spiked standards and blank samples.
Calibration curves are constructed from PQS standards, and respective deuterated PQS is used as an Internal Standards (IS) to calculate the concentration of analytes in the sample and improve the precision of the assay. The back-calculated concentrations of the calibration standards from the calibration curve shall be within ±20% of the nominal values, the range of the analytical method is determined, and the lower and upper limit of quantification specified.
(§1) Liquid chromatography separations are performed using an Agilent HP1100 system (Agilent Technologies) coupled with a CTC PAL Autosampler (CTC Analytics AG). Chromatographic retention is obtained using a monolithic column (Chromolith® RP-18, 50×4.6 mm). The solvent system consists of water containing 0.1% (v/v) formic acid (A) and acetonitrile containing 0.1% (v/v) formic acid (B). The gradient elution profile is chosen as follows: 0 min: 70% A (1500 μL/min), 0.3 min: 70% A (1500 μL/min), 1.3 min: 5% A (2500 μL/min), 1.6 min: 5% A (2500 μL/min).
The MS/MS analysis is performed with an API4000 series mass spectrometer (AB Sciex™) operating in Multiple Reaction Monitoring (MRM) mode and equipped with a TIS ion source. The specific ions monitored are PQS (m/z 260→m/z 175) and D4-PQS (m/z 264→m/z 179). The computer systems used in this study to acquire and quantify data may be an Analyst™ v1.5.
PQS in the presence of different concentrations of test compound are expressed as percentage of inhibition of the basal level in control samples. Curve fitting and IC50 estimations are carried out using a four parameter logistic model using GraphPad Prism v.5 program.

Pyocyanin = Pyocyanin Inhibition Assay; format: cell-based, P. aeruginosa, strain PA14; conditions: Pseudomonas aeruginosa, PA14, 24 h, read-out: Pyocyanin Inhibition No. IC50 (μM)
Protocol: Test compounds are dissolved in DMSO at 10 mM and stored at −20° C. until needed. Seven test concentrations from 0.0032 micromolar to 31.6 micromolar are used for each compound.
P. aeruginosa, strain PA14, is inoculated into 5 mL of LB broth in a 15-mL sterile glass culture tube and incubated overnight at 37° C. under shaking (˜240 rpm). The overnight culture is then diluted in LB Broth to give an OD600=0.04 (T0 culture). Colony Forming Units (CFU)/mL of the overnight culture and T0 culture are determined by a series of 1:10 serial dilutions in sterile saline. 4×20 μL of each dilution is seeded on LB agar plates and incubated at 35±2° C. for 20 hours. CFU/mL is determined from the dilution that gives 2 to 50 colonies/20 μL.
For concentration response curve (CRC) experiments, internal standard, 2-((5-nitro-1H-indol-2-yl)thio)-N-(4-phenoxyphenyl)acetamide, a compound previously identified as an MvfR inhibitor (see Example 1 of US 2014-0066454 (WO 2012/116010)), and test compounds are serially diluted in DMSO to 200 times each final concentration (0.5% DMSO fmal), and 1 μL/well is dispensed in duplicate into 2 mL wells of a 96-well deep well plate. 200 μL/well of T0 culture are added to each internal standard/test compound well. Wells containing only T0 culture (200 200 μL/well) are used to determine pyocyanin control level and wells containing only LB broth (blank wells) are also included in the plate.
The plate is sealed and incubated at 37° C. under shaking (˜700 rpm) using a microtiter shaker for 24 hours. At the end of the incubation period, the plate is centrifuged at 4,000 g for 40 minutes at room temperature, 100 μL/well of the supernatant is transferred to a 96-microtiter PS flat-bottom plate, and absorbance at 690 nm is determined using SPECTROstar® Nano microplate reader. Pyocyanin concentration (M) is determined using the equation C=A690/(ε×d), where ε is the Pyocyanin extinction coefficient, at A690 nm ε is 4,310 M^−1 cm^−1 and d is the experimentally derived pathlength. The level of pyocyanin in the presence of test compound is expressed as percentage of inhibition with respect to the control. Curve fitting and IC50 determination were carried out using a four-parameter logistic model using GraphPad Prism v.5.

PQS [2] = experiment: Assay for PQS Inhibition (6 Hour Incubation); format: cell-based, P. aeruginosa PA14 wild-type strain; conditions: Pseudomonas aeruginosa, PA14, 6 h, read-out: PQS (6 hr) IC50 (μM)
Protocol: (§2) A concentration range with 7 test concentrations is chosen for each test compound. Typically concentration ranges for the PQS and HHQ assays are from 0.03 to 31.6 μM. Compounds are prepared in solvent, usually DMSO, at either 200 or 500 times the final test concentration.
(§3) P. aeruginosa PA14 wild-type strain is inoculated into 5 ml LB broth in a 15 ml sterile glass culture tube and incubated overnight at 37° C. under shaking (˜240 rpm). After overnight incubation, the bacterial culture is diluted in fresh LB broth to an OD600 nm=0.04, and 5 mL aliquots of the diluted bacterial culture are distributed into 15-mL glass tubes. 10 μL of test compound at 500 times the final test concentration or 25 μL of test compound at 200 times the final test concentration or solvent alone is added to each of the bacterial suspension tubes, and the tubes are incubated at 37° C. under shaking (300 rpm) for 6 hours. At the end of the incubation period, a 0.5 mL aliquot of bacterial suspension is transferred from each 15 mL glass tube, after shaking, to a 2 mL polypropylene vial. 0.5 mL of methanol-containing D4-PQS (deuterated-PQS), D4-HHQ (deuterated-HHQ) and 2% acetic acid are added to each 2 mL vial and each vial is vigorously shaken. The vials are then centrifuged for 5 minutes at 12,000 g, and 200 μL of supernatant from each vial is transferred to a glass vial (vials crimp 0.2 mL), and the sealed vials are kept at 4° C. until LC-MS/MS analysis is performed. HAQs quantification is carried out analyzing samples in discrete batches together with spiked standards and blank samples. Calibration curves are constructed from HAQs standards, and respective deuterated forms are used as Internal Standards (IS), to calculate the concentration of analytes in the sample and improve the precision of the assay. The back-calculated concentrations of the calibration standards from the calibration curve shall be within ±20% of the nominal values, the range of the analytical method is determined, and the lower and upper limit of quantification specified.
as §1, with “using” for “using an”
(§4) The MS/MS analysis is performed with a API4000 series mass spectrometer (AB Sciex™) operating in Multiple Reaction Monitoring (MRM) mode and equipped with a TIS ion source. The specific ions monitored are PQS (m/z 260→m/z 175), D4-PQS (m/z 264→m/z 179), HHQ (m/z 244→m/z 159) and D4-HHQ (m/z 248→m/z 163). PQS and HHQ in presence of different test compound concentrations are expressed as percentage of inhibition of the basal level in control samples.

HHQ = experiment: Assay for HHQ Inhibition (6 Hour Incubation); format: cell-based, P. aeruginosa PA14 wild-type strain; conditions: Pseudomonas aeruginosa, PA14, 6 h, read-out: HHQ (6 hr) IC50 (μM)
Protocol: as §2, §3
as §1, with “using” for “using an”
as §4

SMILES	IC50 (PQS [1]) [µM]	IC50 (Pyocyanin) [µM]	IC50 (PQS [2]) [µM]	IC50 (HHQ) [µM]
Cc1cc(NCC(=O)Nc2ccc(C#N)c(Cl)c2)ccc1Br [Compound 153]	> 10	> 10		
Cc1cc(F)ccc1NC(=O)CNc1ccc(C#N)cc1 [Compound 154]	> 10	> 10		
N#Cc1ccc(NC(=O)CNc2ccc(F)cc2)cc1 [Compound 155]	> 10	> 10		
N#Cc1ccc(NC(=O)CNc2ccc(Cl)cc2)cc1 [Compound 156]	> 10	> 10		
N#Cc1ccc(NCC(=O)Nc2ccc(F)c(F)c2)nc1 [Compound 157]	> 10	> 10		
O=C(CNc1cccc(F)c1)Nc1cccc(Oc2ccccc2)c1 [Compound 158]	> 10	> 10		
O=C(CNc1nc2ccc(Cl)cc2[nH]1)Nc1ccc(Oc2cccnc2)cc1 [Compound 159, 2-((5-chloro-1H-benzo[d]imidazol-2-yl)amino)-N-(4-(pyridin-3-yloxy)phenyl)acetamide]		0.1 to 1	< 1	< 1
